Data as given in patent US7638486B2, “Method for promoting hard tissue formation” (Acologix, Inc., priority 2005, dated 2009).

Legend:
[1] = system: primary osteoblasts collected from fetal mouse calvaria; experiment: Alkaline phosphatase (ALP) activity in primary osteoblasts under suboptimal BMP-2; assay type: cell-based
Description: The peptide of SEQ ID No. 8 was added to this culture system at 0, 0.2, 0.4, 1.0, 2.0, and 4.0 μM. The levels of ALP were evaluated on days 0, 3, and 7.

COX-2 mRNA [2] = experiment: Gene expression microarray analysis in Clonetics hMSC cells; assay type: cell-based, human; conditions: peptide 1000 ng/ml
Description: Materials and Methods: The effect of the peptide of SEQ ID No. 8 treatment on gene expression was assessed in the Clonetics hMSC cells using gene expression microarray analysis as previously described (Locklin et al., 2001). Briefly, cells were plated in five T-150 vented flasks at a density of 1.0×10^6 cells per flask in growth medium and cultured at 37° C. for 48 hours. Flasks containing either vehicle alone or the peptide of SEQ ID No. 8 (1000 ng/ml) were cultured for 24 hr or for 48 h in standard differentiation medium. At each time point, the vehicle and treatment flasks were trypsinized, cells removed and total RNA was extracted for analysis via the Qiagen Rneasy Kit (Qiagen). 8 μg of total RNA were amplified and biotin labeled. The mixture was hybridized to a U95A human gene expression microarray (Affymetrix) containing probes for 12,600 human genes. The chips were then washed, stained with phycoerythrin-streptavidin and read with an Affymetrix scanner. Hybridization intensity values to mRNA frequency were calculated in molecules per million. Analysis of intensity values was conducted using Spotfire Decision Site (Somerville, Mass.) software.

[3] = system: MC3T3-E1 subclone 4 cells; experiment: BMP-2 stimulated PGE2 production by MC3T3 cells (ELISA); assay type: cell-based, mouse; conditions: 24 hours, with BMP-2
Description: Methods: MC3T3-E1 subclone 4 cells are neonatal mouse derived calvarial preosteoblasts with fibroblast morphology. […] For this experiment the MC3T3 cells were plated 10^5 cells per well in 24 well plates in growth medium (alpha MEM+1 mM sodium pyruvate+10% fetal bovine serum (FBS)). After 24 hours of culture the media was removed and replaced with assay media (alphaMEM+1 mM sodium pyruvate+2% FBS) containing the test substances. Each test group utilized 4 wells. After incubation for a further 24 hours the media was removed and the levels of PGE2 were determined using an ELISA (R&D Systems).

hemi-calvariae [4] = experiment: Mouse calvaria organ culture assay (PGE2 ELISA, histology); assay type: cell-based, Swiss Webster mice; conditions: peptide 1, 10, 100 μg/mL daily for seven days
Source text: Methods: Calvarial organ cultures have been used for many years to study the regulation of bone formation and bone resorption. An advantage of this method compared to in vivo studies is the absence of confounding effects (such as hormonal and mechanical influences) meaning a more direct effect of the test substances on bone tissue can be determined. Also compared to isolated cell systems, interrelationships between the different cell types in the bone and between these cells and the bone matrix are preserved.
Briefly, hemi-calvariae were isolated from 4 day old Swiss Webster mice and incubated in media on steel mesh grids. The peptide of SEQ ID NO. […] Samples of the conditioned media were collected daily for analysis of PGE2 concentration (R&D Systems ELISA kit). At the end of the culture the bones were analyzed for new bone formation and number of osteoblasts using histology.

dorsal muscle of mice = experiment: Ectopic bone formation in mouse dorsal muscle with implanted polymer; assay type: in vivo, ICR mice
Source text: It has been known that BMP causes bone formation when administered or implanted in mammals when given. The activity can be enhanced when given in the appropriate delivery vehicle.
The mice were sacrificed 3 weeks later and the newly formed bones were isolated for evaluation using soft X-ray radiograph and bone mineral density determination.

human mesenchymal cells = experiment: PGE2 in human mesenchymal cells in culture; assay type: cell-based; conditions: peptide alone
[5] = system: hard tissue forming cells; experiment: Biological activities for the purpose of the invention (test not specified)
COX-2 mRNA [6] = conditions: Nagel et al., Journal of Cellular Biochemistry, 2004; cited from earlier work
hemi-calvariae [7] = conditions: Middleton-Hardie et al., ASBMR 2005; cited from earlier work

TDLQERGDNDISPFSGDGQPFKD [SEQ ID No. 8]
ALP activity increase as compared with BMP-2 treated cells without the peptide ([1]; 2 μM peptide with 25 ng/mL BMP-2): ~2 times | ALP activity in osteoblastic cells ([1]; BMP-2 25 ng/mL plus peptide 0.2-4.0 μM, dose dependent): significantly increased | COX-2 mRNA increase (summary in discussion) (COX-2 mRNA [2]): ~3 fold | COX-2 mRNA increase (COX-2 mRNA [2]; 24 h): 3.6 fold | COX-2 mRNA increase (COX-2 mRNA [2]; 48 h): 2.2 fold | BMP-2 induced PGE2 production [3]: increases | PGE2 production (hemi-calvariae [4]): significant increases | bone cell density (hemi-calvariae [4]; histology): significant increases | osteoblast surface (hemi-calvariae [4]; histology): significant increases | parameters of new bone formation (hemi-calvariae [4]; histology): significant increases | Effect of the peptide on BMP-2 bone formation (size and mineral density of ectopic ossicles) (dorsal muscle of mice; 3 μg BMP-2 in 30 mg polymer, peptide 50, 250 or 1250 μg, three weeks): significant enhancement | Bone formation when peptide added to suboptimal dose of rhBMP-2 (dorsal muscle of mice; 3 μg rhBMP-2, varying amounts of peptide): significant and dose dependent increase | Efficacy of the peptide on bone formation (size and mineral density of ectopic ossicles) (dorsal muscle of mice; 5 μg BMP-2 in 30 mg polymer, peptide 50, 250 or 1250 μg, three weeks): unclear | PGE2 increase (human mesenchymal cells): did not result in a significant increase | Biological activities relative to other sequences [5]: highest activities | COX-2 in human mesenchymal stem cells (COX-2 mRNA [6]): upregulated | production of PGE2 in mouse calvaria organ culture assay (hemi-calvariae [7]): dose dependently upregulated
